# Source: publication PMC6736568, “Discovery of Novel Anti-cryptosporidial Activities From Natural Products by in vitro High-Throughput Phenotypic Screening” (Frontiers in Microbiology, 2019)
# Counter-ions that a name gives are not always drawn. Like-named read-outs stand apart in the source and are kept apart here.
# Experiments:
# in vitro = conditions: for cytotoxicity at 41 h, 10 µM: human
# Cryptosporidium parvum = test: qRT-PCR assay of the growth of C. parvum in vitro in HCT-8 host cells (primary and secondary screening, EC50); format: cell-based; conditions: Cryptosporidium parvum, HCT-8; for inhibition at 10 µM: primary screening at 10 uM, read-out: Inhibition (%); for inhibition at 3.3 µM: secondary screening at 3.3 uM, read-out: % Inhibition (3.3 uM)
# [1] = primary screening at 10 uM, treated vs control
SMILES,Hs18S ΔCT (HCT-8 host cells (Hs18S); [1]),cytotoxicity at 10 µM (in vitro) [%],inhibition at 10 µM (Cryptosporidium parvum) [%],"Hs18S ΔCT (HCT-8 host cells (Hs18S); human, 41 h, 10 μM)","cytotoxicity at 41 h, 10 µM (in vitro) [%]",inhibition at 3.3 µM (Cryptosporidium parvum) [%],Hs18S ΔCT (HCT-8 host cells (Hs18S))
CN1[C@@H]2CC[C@H]1C[C@@H](OC(=O)C(CO)c1ccccc1)C2 (stereo partly drawn) [ATROPINE SULFATE],0.26,16.3,3.7,,,,
C#CCCCCCCCCCCCC(O)CC(O)COC(C)=O (stereo not drawn) [AVOCADYNE ACETATE],,,15.8,0.19,12.2,,
C=CCCCCCCCCCCCC(O)CC(O)COC(C)=O (stereo not drawn) [AVOCATIN A],,,46,0.00,-0.1,,
C/C=C(\C)C(=O)O[C@H]1C[C@@H](OC(C)=O)[C@@]2(C(=O)OC)CO[C@H]3[C@@H](O)[C@@](C)([C@]45O[C@@]4(C)[C@H]4C[C@@H]5O[C@@H]5OC=C[C@@]54O)[C@H]4[C@]1(CO[C@]4(O)C(=O)OC)[C@@H]32 [AZADIRACHTIN],,,23.7,0.00,-0.1,,
O=C(O)CCCCCCCC(=O)O [AZELAIC ACID],,,6.72,0.03,1.8,,
CC(=O)O[C@H]1C(=O)[C@@]2(C)[C@H]([C@H](OC(=O)c3ccccc3)[C@]3(O)C[C@H](O)C(C)=C1C3(C)C)[C@]1(OC(C)=O)CO[C@@H]1C[C@@H]2O [BACCATIN III],0.08,5.2,1.76,,,,
O=C(O)[C@H]1O[C@@H](Oc2cc3oc(-c4ccccc4)cc(=O)c3c(O)c2O)[C@H](O)[C@@H](O)[C@@H]1O [BAICALIN],-0.23,,-13,,-17.1,,
CCCCCCCCCCCCCCCCCCOCC(O)CO (stereo not drawn) [BATYL ALCOHOL],,,41.3,-0.57,-48,,
NC[C@H]1O[C@H](O[C@H]2[C@H](O)[C@@H](O[C@H]3O[C@H](CO)[C@@H](O)[C@H](N)[C@H]3O)[C@H](N)C[C@@H]2N)[C@H](N)[C@@H](O)[C@@H]1O [BEKANAMYCIN SULFATE],,,4.16,0.13,8.7,,
S=C=NCc1ccccc1 [BENZYL ISOTHIOCYANATE],0.57,,91.8,,32.8,14,
COc1c2ccoc2cc2oc(=O)ccc12 [BERGAPTEN],0.06,4.3,-22.3,,,,
COc1c(O)cc2c(c1O)[C@@H]1O[C@H](CO)[C@@H](O)[C@H](O)[C@H]1OC2=O [BERGENIN],,,36,0.38,23.1,,
C[N+](C)(C)CC(=O)O [BETAINE HYDROCHLORIDE],,,19.9,-0.38,-30,,
C=C(C)[C@@H]1CC[C@]2(C(=O)O)CC[C@]3(C)[C@H](CC[C@@H]4[C@@]5(C)CC[C@H](O)C(C)(C)[C@@H]5CC[C@]43C)[C@@H]12 [BETULINIC ACID],-0.23,-17.4,33,,,,
C=C(C)[C@@H]1CC[C@]2(CO)CC[C@]3(C)[C@H](CC[C@@H]4[C@@]5(C)CC[C@H](O)C(C)(C)[C@@H]5CC[C@]43C)[C@@H]12 [BETULIN],-0.49,-40.4,36.9,,,,
C=CC1=C(C)/C(=C/c2[nH]c(Cc3[nH]c(/C=C4\NC(=O)C(C)=C4C=C)c(C)c3CCC(=O)O)c(CCC(=O)O)c2C)NC1=O [BILIRUBIN],,,-7.55,-0.01,-0.9,,
O=C(O)CCCC[C@@H]1SC[C@@H]2NC(=O)N[C@@H]21 [BIOTIN],-0.24,-18.4,11.9,,,,
CCc1ccc2c(O)c3c(cc2c1C(=O)OC)C(=O)c1c(O)ccc(O)c1C3=O [BISANHYDRORUTILANTINONE],,,24.5,-0.16,-12,,
CC(C)(c1ccc(O)cc1)c1ccc(O)cc1 [BISPHENOL A],,,-35.2,-0.20,-15,,
COC(=O)/C=C/C(C)=C\C=C\C(C)=C\C=C\C=C(C)\C=C\C=C(C)\C=C\C(=O)O [BIXIN],,,49.3,0.60,34.2,,

SMILES,Hs18S ΔCT (HCT-8 host cells (Hs18S); [1]),cytotoxicity at 10 µM (in vitro) [%],inhibition at 10 µM (Cryptosporidium parvum) [%],"Hs18S ΔCT (HCT-8 host cells (Hs18S); human, 41 h, 10 μM)","cytotoxicity at 41 h, 10 µM (in vitro) [%]",inhibition at 3.3 µM (Cryptosporidium parvum) [%],Hs18S ΔCT (HCT-8 host cells (Hs18S))
COc1cc2c(cc1O)C[C@H]1c3c(cc(O)c(OC)c3-2)CCN1C [BOLDINE],-0.34,-26.4,-28.6,,,,
O=C1C=C2CC3(O)COc4cc(O)ccc4C3=C2C=C1O (stereo not drawn) [BRAZILEIN],,,-12.2,0.03,2.2,,
Oc1ccc2c(c1)OC[C@]1(O)Cc3cc(O)c(O)cc3[C@H]21 [BRAZILIN],,,8.3,-0.12,-8.9,,
COc1cc2c(cc1OC)[C@@]13CCN4CC5=CCO[C@H]6CC(=O)N2[C@H]1[C@H]6[C@H]5C[C@H]43 [BRUCINE],-0.11,-8.2,49.9,,,,
COC(=O)C[C@H]1C2(C)CC34OC5(C)O[C@@]6([C@H](OC(C)=O)C(OC(C)=O)[C@]7(C)C(/C(=C(/O)C(C)C)C(=O)O[C@H]7c7ccoc7)[C@@]6(O5)[C@H](OC(C)=O)[C@@]3(O)C2OC(=O)C(C)C)[C@]14C (stereo partly drawn) [BUSSEIN],,,85.1,-0.33,-25.3,34,
O=C(O)/C=C/c1ccc(O)c(O)c1 [CAFFEIC ACID],,,18.9,-0.34,-26.2,,
Cn1c(=O)c2c(ncn2C)n(C)c1=O [CAFFEINE],,16.9,3.94,,,,0.27
CC[C@@]1(O)C(=O)OCc2c1cc1n(c2=O)Cc2cc3ccccc3nc2-1 [CAMPTOTHECIN],1.35,60.8,76,,,59,
N=C(N)NOCC[C@H](N)C(=O)O [CANAVANINE],0.29,18.4,-3.4,,,,
COc1cc(CNC(=O)CCCC/C=C/C(C)C)ccc1O [CAPSAICIN],0.00,0.1,-54.2,,,,
CC1=C(/C=C/C(C)=C/C=C/C(C)=C/C=C/C=C(C)/C=C/C=C(C)/C=C/C(=O)[C@]2(C)C[C@@H](O)CC2(C)C)C(C)(C)C[C@H](O)C1 [CAPSANTHIN],,,-5.31,-0.08,-5.5,,
COC(=O)C[C@H]1C(C)(C)C(=O)[C@@H]2CC3C4=CC(=O)O[C@@H](c5ccoc5)[C@]4(C)CC[C@@H]3[C@@]1(C)C2=O (stereo partly drawn) [CARAPIN],,,30.7,-0.07,-5.2,,
Cc1c(C(=O)O)c(O)cc2c1C(=O)c1c(O)c([C@@H]3O[C@H](CO)[C@@H](O)[C@H](O)[C@H]3O)c(O)c(O)c1C2=O [CARMINIC ACID],,,-24.9,-0.10,-7.5,,
NCCC(=O)N[C@@H](Cc1cnc[nH]1)C(=O)O [CARNOSINE],,,41.1,0.08,5.5,,
CC(=O)Oc1cc(OC(C)=O)c2c(c1)O[C@H](c1ccc(OC(C)=O)c(OC(C)=O)c1)[C@@H](OC(C)=O)C2 [CATECHIN PENTAACETATE],-0.26,-19.6,10.7,,,,
COc1cc(O)c(C(=O)c2ccccc2)cc1O [CEAROIN],,,-22.5,-0.27,-21,,
C[C@@H]1CC[C@H]2C(C)(C)[C@H]3C[C@@]12CC[C@@]3(C)O [CEDROL],,,-4.53,-0.11,-7.7,,
CC(=O)O[C@]1(C)CC[C@@]23C[C@@H]1C(C)(C)[C@@H]2CC[C@H]3C [CEDRYL ACETATE],0.05,3.6,9.38,,,,
COc1ccc2cc1Oc1ccc(cc1)C[C@H]1c3c(cc4c(c3Oc3cc5c(cc3OC)CCN(C)[C@@H]5C2)OCO4)CCN1C [CEPHARANTHINE],,,16.8,0.33,20.5,,
"CCOC(=O)CCCCCCCCCCCCC1C=CCC1 (stereo not drawn) [CHAULMOOGRIC ACID, ETHYL ESTER]",,,-0.95,-0.15,-10.8,,
